Assay results published in US20170166598A1, “HETEROARYL COMPOUNDS FOR KINASE INHIBITION” (ARIAD PHARMACEUTICALS, INC., priority 2014, published 2017).

Key:
Format in all cases: cell-based
[1] = molecular target: T1, human EGFR exon 20 insertion NPG (H773_V774insNPG) (Homo sapiens, UniProt P00533, INS772GNP); experiment: Ba/F3-EGFR-Exon20-NPG cell anti-proliferative assay (CellTiter 96 MTS, 72 h); settings: Ba/F3-EGFR-Exon20-NPG cells
T1 construct: expressed in transfected cells; host or cells: Ba/F3 (murine pro-B) cells transduced with lentivirus from pLVX-IRES puro
T1 sequence (P00533 with tags, fused parts or gaps INS772GNP): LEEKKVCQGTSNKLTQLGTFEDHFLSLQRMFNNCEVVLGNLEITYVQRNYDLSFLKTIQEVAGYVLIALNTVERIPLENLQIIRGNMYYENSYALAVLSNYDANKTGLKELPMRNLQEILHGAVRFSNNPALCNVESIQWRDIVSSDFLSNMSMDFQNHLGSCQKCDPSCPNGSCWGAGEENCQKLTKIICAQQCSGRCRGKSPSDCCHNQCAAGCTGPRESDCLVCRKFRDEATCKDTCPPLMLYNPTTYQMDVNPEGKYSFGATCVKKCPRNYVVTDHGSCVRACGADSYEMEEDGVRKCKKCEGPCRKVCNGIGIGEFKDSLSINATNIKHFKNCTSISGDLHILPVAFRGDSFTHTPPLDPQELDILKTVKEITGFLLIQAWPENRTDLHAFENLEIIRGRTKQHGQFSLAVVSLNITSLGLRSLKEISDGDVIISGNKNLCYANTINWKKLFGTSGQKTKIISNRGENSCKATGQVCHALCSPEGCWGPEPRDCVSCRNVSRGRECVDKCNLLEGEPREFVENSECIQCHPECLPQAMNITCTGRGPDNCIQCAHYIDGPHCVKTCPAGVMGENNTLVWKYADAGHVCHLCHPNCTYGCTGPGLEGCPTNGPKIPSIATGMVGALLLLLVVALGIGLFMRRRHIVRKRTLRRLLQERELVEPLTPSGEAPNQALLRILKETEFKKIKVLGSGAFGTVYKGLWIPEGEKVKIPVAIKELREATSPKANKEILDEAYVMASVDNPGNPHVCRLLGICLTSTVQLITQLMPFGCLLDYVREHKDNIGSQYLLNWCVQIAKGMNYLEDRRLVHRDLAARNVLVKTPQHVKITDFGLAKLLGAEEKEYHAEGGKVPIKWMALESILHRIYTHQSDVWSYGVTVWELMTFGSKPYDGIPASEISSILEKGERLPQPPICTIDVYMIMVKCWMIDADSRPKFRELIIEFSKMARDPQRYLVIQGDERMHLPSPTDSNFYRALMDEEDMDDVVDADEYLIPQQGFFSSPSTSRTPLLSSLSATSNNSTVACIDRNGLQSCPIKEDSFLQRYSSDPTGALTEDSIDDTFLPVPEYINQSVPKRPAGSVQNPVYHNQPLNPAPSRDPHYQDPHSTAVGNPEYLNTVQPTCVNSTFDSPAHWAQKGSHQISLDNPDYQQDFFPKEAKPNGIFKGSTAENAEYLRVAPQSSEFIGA
Procedure: (§1) An expression vector, pLVX-IRES puro (Clontech) coding for human EGFR exon 20 insertions NPG (H773_V774insNPG) or ASV (V769_D770insASV), was transfected into HEK293 cells by the Trans-Lentiviral ORF Packaging System (Thermo Scientific), to produce virus encoding EGFR exon 20 insertions. Ba/F3 (DSMZ) cells maintained in RPMI 1640 medium supplemented with 10% fetal bovine serum, 200 μM L-glutamine/l 200 μg/mL penicillin/200 μg/mL streptomycin (Life Technology) and 10 ng/mL IL-3 (R&D system), were infected by EGFR Exon20 virus and subsequently selected by puromycin (Life Technology) selection and IL-3 depletion. […] The anti-proliferative activity of compounds were determined as follows: BaF3-EGFR-Exon20 cells (NPG or ASV) seeded in 96 well plates (2500 cells/well) were treated with test compound (dissolved in DMSO) at a series of concentrations (4-fold dilution, top concentration: 10,000 nM). The plates were incubated for 72 h in a 37° C. incubator with 5% CO2, and the number of viable cells in each well were measured indirectly by CellTiter 96® Aqueous One Solution Cell Proliferation Assay (Promega) This assay is a colorimetric method for determining the number of viable cells through measurement of their metabolic activity by detection of enzymatic conversion of tetrazolium salts into blue formazan derivatives. Reagent (20 μL) was added into each well, and the plates were returned to the incubator for 2 h. The absorbance in each well was then measured at 490 nm using an Envision plate reader (Perkin Elmer).

[2] = molecular target: T2, Her2 exon 20 YVMA insertion (A775_G776ins YVMA) (Homo sapiens, UniProt P04626, INS775YVMA); experiment: Ba/F3-Her2 Exon20 YVMA cell anti-proliferative assay (CellTiter 96 MTS, 72 h); settings: Ba/F3-Her2 Exon20 YVMA cells
T2 construct: expressed in transfected cells; host or cells: Ba/F3 (murine pro-B) cells transduced with lentivirus from pLVX-IRES puro
T2 sequence (P04626 with tags, fused parts or gaps INS775YVMA): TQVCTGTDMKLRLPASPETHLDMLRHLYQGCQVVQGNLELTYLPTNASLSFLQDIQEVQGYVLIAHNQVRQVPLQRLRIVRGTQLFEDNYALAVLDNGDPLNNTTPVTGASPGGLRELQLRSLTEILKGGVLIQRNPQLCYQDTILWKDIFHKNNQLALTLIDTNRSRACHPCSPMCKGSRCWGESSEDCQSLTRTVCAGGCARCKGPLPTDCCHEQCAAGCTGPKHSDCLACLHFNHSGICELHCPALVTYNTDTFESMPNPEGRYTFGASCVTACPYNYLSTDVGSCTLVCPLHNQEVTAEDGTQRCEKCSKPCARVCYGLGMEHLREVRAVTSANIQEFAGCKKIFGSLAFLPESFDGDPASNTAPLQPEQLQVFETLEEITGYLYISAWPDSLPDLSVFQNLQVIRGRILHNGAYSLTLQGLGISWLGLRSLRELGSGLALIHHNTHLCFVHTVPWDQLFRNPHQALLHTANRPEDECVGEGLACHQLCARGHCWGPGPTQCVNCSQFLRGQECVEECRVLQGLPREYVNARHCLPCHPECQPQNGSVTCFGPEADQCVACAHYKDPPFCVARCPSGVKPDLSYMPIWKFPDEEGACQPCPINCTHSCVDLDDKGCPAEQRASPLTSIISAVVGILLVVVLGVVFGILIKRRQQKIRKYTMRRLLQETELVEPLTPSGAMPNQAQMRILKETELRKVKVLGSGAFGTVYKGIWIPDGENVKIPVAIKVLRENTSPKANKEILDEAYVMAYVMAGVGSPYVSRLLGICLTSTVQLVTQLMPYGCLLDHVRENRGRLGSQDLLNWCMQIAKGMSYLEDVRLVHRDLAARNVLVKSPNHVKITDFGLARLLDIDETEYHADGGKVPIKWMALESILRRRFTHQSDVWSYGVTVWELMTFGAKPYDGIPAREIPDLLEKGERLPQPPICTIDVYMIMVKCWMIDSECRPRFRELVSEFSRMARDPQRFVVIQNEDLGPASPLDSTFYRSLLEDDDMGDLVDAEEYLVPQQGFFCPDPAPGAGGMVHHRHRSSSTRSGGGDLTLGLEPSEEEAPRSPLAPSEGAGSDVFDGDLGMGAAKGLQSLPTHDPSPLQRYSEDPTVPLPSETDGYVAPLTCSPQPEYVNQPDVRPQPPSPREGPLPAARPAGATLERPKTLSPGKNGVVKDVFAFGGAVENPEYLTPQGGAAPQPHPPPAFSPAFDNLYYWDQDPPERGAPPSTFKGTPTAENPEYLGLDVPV
From the text: A compound's ability in selectively inhibiting Her2 exon 20 YVMA insertion mutations can be assessed using Ba/F3 cells, a murine pro-B cell line, which have been transduced with Her2 Exon20 YVMA insertions. An expression vector, pLVX-IRES puro (Clontech) coding for […] (A775_G776ins YVMA), was transfected into HEK293 cells by the Trans-Lentiviral ORF Packaging System (Thermo Scientific), to produce virus encoding EGFR exon 20 insertions. Ba/F3 (DSMZ) cells maintained in RPMI 1640 medium supplemented with 10% fetal bovine serum, 200 μM L-glutamine/200 μg/mL penicillin/200 μg/mL streptomycin (Life Technology) and 10 ng/mL IL-3 (R&D system), were infected by EGFR Exon20 virus and subsequently selected by puromycin (Life Technology) selection and IL-3 depletion. Ba/F3 cells expressing Her2 Exon20 YVMA insertions (named Ba/F3-Her2 Exon20 YVMA) can proliferate in the absence of IL-3. The anti-proliferative activity of compounds was determined as follows: BaF3-Her2 Exon20 YVMA cells seeded in 96 well plates (2500 cells/well) were treated with test compound (dissolved in DMSO) at a series of concentrations (4-fold dilution, top concentration: 10,000 nM). The plates were incubated for 72 h in a 37° C. incubator with 5% CO2, and the number of viable cells in each well were measured indirectly by CellTiter 96@ Aqueous One Solution Cell Proliferation Assay (Promega; this assay is a colorimetric method for determining the number of viable cells through measurement of their metabolic activity by detection of enzymatic conversion of tetrazolium salts into blue formazan derivatives). Reagent (20 μL) was added into each well, and the plates were returned to the incubator for 2 h. The absorbance in each well was then measured at 490 nm using an Envision plate reader (Perkin Elmer).

[3] = molecular target: T3, human EGFR E746-A750 deletion and T790M Mutation (Homo sapiens, UniProt P00533, DEL746-750/T790M); experiment: Ba/F3-EGFR-Del/T790M cell anti-proliferative assay (CellTiter 96 MTS, 72 h); settings: Ba/F3-EGFR-Del/T790M cells
T3 construct: expressed in transfected cells; host or cells: Ba/F3 (murine pro-B) cells transduced with lentivirus from pLVX-IRES puro
T3 sequence (P00533 with tags, fused parts or gaps DEL746-750/T790M): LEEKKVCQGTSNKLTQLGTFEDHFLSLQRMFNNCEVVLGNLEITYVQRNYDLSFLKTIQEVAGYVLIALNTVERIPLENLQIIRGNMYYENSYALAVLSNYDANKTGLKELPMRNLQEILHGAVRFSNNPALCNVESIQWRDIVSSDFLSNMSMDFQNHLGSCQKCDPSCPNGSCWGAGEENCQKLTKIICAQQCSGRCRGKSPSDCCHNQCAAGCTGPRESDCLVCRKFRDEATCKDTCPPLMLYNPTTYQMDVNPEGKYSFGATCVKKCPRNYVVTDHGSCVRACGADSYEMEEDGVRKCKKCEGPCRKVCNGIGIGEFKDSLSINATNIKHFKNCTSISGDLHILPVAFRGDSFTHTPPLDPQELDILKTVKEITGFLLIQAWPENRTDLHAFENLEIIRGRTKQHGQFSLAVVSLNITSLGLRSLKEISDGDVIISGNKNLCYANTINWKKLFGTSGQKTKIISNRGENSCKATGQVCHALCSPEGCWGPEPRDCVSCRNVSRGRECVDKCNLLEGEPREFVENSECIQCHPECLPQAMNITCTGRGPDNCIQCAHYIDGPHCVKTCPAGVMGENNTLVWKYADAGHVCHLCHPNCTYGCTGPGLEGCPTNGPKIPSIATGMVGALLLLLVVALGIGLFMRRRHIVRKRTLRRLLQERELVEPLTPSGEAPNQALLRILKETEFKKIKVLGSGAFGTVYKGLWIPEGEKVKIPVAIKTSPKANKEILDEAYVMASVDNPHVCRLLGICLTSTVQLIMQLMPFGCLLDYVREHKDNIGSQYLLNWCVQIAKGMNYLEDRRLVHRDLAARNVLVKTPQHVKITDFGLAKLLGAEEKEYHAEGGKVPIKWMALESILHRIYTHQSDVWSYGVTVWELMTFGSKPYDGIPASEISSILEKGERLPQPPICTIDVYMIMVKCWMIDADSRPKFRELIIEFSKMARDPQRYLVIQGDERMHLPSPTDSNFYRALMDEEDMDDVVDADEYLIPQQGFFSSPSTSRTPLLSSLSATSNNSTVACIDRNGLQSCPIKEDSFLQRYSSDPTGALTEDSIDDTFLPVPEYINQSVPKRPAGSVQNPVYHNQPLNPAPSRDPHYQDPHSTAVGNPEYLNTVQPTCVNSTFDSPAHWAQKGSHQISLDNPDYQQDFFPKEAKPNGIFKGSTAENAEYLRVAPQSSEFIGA
Procedure: An expression vector, pLVX-IRES puro (Clontech) coding for human EGFR E746-A750 deletion and T790M Mutation, was transfected into HEK293 cells by the Trans-Lentiviral ORF Packaging System (Thermo Scientific), to produce virus encoding EGFR exon 19 deletion and T790M mutations. Ba/F3 (DSMZ) cells maintained in RPMI 1640 medium supplemented with 10% fetal bovine serum, 200 μM L-glutamine/200 μg/mL penicillin/200 μg/mL streptomycin (Life Technology) and 10 ng/mL IL-3 (R&D system), were infected by EGFR E746-A750 deletion and T790M Mutation virus and subsequently selected by puromycin (Life Technology) selection and IL-3 depletion. […] The anti-proliferative activity of compounds was determined as follows: BaF3-EGFR-Del/T790M cells seeded in 96 well plates (2500 cells/well) were treated with test compound (dissolved in DMSO) at a series of concentrations (4-fold dilution, top concentration: 10,000 nM). The plates were incubated for 72 h in a 37° C. incubator with 5% CO2, and the number of viable cells in each well were measured indirectly by CellTiter 96® Aqueous One Solution Cell Proliferation Assay (Promega; this assay is a colorimetric method for determining the number of viable cells through measurement of their metabolic activity by detection of enzymatic conversion of tetrazolium salts into blue formazan derivatives). Reagent (20 μL) was added into each well, and the plates were returned to the incubator for 2 h. The absorbance in each well was then measured at 490 nm using an Envision plate reader (Perkin Elmer).

[4] = molecular target: T4, human EGFR exon 20 insertion ASV (V769_D770insASV) (Homo sapiens, UniProt P00533, INS769ASV); experiment: Ba/F3-EGFR-Exon20-ASV cell anti-proliferative assay (CellTiter 96 MTS, 72 h); settings: Ba/F3-EGFR-Exon20-ASV cells
T4 construct: expressed in transfected cells; host or cells: Ba/F3 (murine pro-B) cells transduced with lentivirus from pLVX-IRES puro
T4 sequence (P00533 with tags, fused parts or gaps INS769ASV): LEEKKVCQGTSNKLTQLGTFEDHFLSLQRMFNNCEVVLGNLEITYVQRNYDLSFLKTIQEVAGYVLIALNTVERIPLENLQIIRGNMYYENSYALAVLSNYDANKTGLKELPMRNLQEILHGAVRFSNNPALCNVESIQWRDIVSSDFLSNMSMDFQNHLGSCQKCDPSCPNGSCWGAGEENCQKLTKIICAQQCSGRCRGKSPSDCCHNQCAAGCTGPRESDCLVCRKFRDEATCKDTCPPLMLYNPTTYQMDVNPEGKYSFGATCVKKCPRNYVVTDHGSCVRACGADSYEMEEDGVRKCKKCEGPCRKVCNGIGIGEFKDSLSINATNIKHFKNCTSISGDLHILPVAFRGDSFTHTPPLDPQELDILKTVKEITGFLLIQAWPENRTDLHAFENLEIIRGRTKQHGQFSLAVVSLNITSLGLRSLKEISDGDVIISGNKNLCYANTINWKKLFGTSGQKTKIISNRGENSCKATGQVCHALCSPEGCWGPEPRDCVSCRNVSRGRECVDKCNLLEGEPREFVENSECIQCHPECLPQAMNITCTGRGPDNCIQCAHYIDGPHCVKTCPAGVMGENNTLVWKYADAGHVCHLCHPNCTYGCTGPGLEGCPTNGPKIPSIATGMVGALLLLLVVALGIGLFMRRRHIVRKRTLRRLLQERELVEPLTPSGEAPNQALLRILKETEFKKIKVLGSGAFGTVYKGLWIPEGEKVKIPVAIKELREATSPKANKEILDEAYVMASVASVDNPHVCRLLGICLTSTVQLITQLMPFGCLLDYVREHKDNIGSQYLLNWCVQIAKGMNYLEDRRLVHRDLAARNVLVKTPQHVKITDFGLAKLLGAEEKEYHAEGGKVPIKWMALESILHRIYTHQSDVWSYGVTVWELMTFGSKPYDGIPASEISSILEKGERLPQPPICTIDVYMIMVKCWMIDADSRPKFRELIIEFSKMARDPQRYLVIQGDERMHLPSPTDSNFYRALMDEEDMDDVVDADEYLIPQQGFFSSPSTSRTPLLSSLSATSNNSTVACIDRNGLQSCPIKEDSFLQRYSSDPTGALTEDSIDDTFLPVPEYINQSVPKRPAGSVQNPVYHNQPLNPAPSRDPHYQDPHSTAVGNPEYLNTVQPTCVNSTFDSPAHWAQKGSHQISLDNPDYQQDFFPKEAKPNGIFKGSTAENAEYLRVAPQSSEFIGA
Procedure: as §1

IC50 [1] [nM]	IC50 [2] [nM]	IC50 [4] [nM]	Structure (SMILES)	EGFR exon 19 deletion and exon 20 T790M mutation IC50 [3]
< 100	100 to 500	100 to 500	C=CC(=O)Nc1cc(Nc2ncc(C#N)c(-c3cn4c5c(cccc35)OCC4)n2)c(OC)cc1N1CC(N(C)C)C1 [Example 6, N-(5-((5-cyano-4-(2,3-dihydro-[1,4]oxazino[2,3,4-hi]indol-6-yl)pyrimidin-2-yl)amino)-2-(3-(dimethylamino)azetidin-1-yl)-4-methoxyphenyl)acrylamide]	A (IC50 value for the indicated mutant below about 100 nM)
< 100	100 to 500	< 100	C=CC(=O)Nc1cc(Nc2ncc(Cl)c(-c3cn4c5c(cccc35)OCC4)n2)c(OC)cc1N(C)CC1CCCN1C (centres unmarked) [Example 8, N-(5-((5-chloro-4-(2,3-dihydro-[1,4]oxazino[2,3,4-hi]indol-6-yl)pyrimidin-2-yl)amino)-4-methoxy-2-(methyl((1-methylpyrrolidin-2-yl)methyl)amino)phenyl)acrylamide]	A (IC50 value for the indicated mutant below about 100 nM)
< 100	500 to 1000	100 to 500	C=CC(=O)Nc1cc(Nc2ncc(Cl)c(-c3cn4c5c(cccc35)OCC4)n2)c(OC)cc1N(C)C1CCN(C)C1 (centres unmarked) [Example 9, N-(5-((5-chloro-4-(2,3-dihydro-[1,4]oxazino[2,3,4-hi]indol-6-yl)pyrimidin-2-yl)amino)-4-methoxy-2-(methyl(1-methylpyrrolidin-3-yl)amino)phenyl)acrylamide]	A (IC50 value for the indicated mutant below about 100 nM)
< 100	100 to 500	< 100	C=CC(=O)Nc1cc(Nc2ncc(C#N)c(-c3cn4c5c(cccc35)CCC4)n2)c(OC)cc1N1CC[C@@H](N(C)C)C1 [Example 15, (R)-N-(5-((5-cyano-4-(5,6-dihydro-4H-pyrrolo[3,2,1-ij]quinolin-1-yl)pyrimidin-2-yl)amino)-2-(3-(dimethylamino)pyrrolidin-1-yl)-4-methoxyphenyl)acrylamide]	A (IC50 value for the indicated mutant below about 100 nM)
< 100	100 to 500	100 to 500	C=CC(=O)Nc1cc(Nc2ncc(F)c(-c3cn4c5c(cccc35)CCC4)n2)c(OC)cc1N(C)CCN(C)C [Example 17, N-(5-((4-(5,6-dihydro-4H-pyrrolo[3,2,1-ij]quinolin-1-yl)-5-fluoropyrimidin-2-yl)amino)-2-((2-(dimethylamino)ethyl)(methyl)amino)-4-methoxyphenyl)acrylamide]	A (IC50 value for the indicated mutant below about 100 nM)
< 100	100 to 500	< 100	C=CC(=O)Nc1cc(Nc2ncc(Cl)c(-c3cn4c5c(cccc35)CCC4)n2)c(CC)cc1N(C)CCN(C)C [Example 18, N-(5-((5-chloro-4-(5,6-dihydro-4H-pyrrolo[3,2,1-ij]quinolin-1-yl)pyrimidin-2-yl)amino)-2-((2-(dimethylamino)ethyl)(methyl)amino)-4-ethylphenyl)acrylamide]	A (IC50 value for the indicated mutant below about 100 nM)

Continued, compound first:

Structure (SMILES)	IC50 [1] [nM]	IC50 [2] [nM]	IC50 [4] [nM]	EGFR exon 19 deletion and exon 20 T790M mutation IC50 [3]
C=CC(=O)Nc1cc(Nc2ncc(CC)c(-c3cn4c5c(cccc35)CCC4)n2)c(OC)cc1N(C)CCN(C)C [Example 2, N-(5-((4-(5,6-dihydro-4H-pyrrolo[3,2,1-ij]quinolin-1-yl)-5-ethylpyrimidin-2-yl)amino)-2-((2-(dimethylamino)ethyl)(methyl)amino)-4-methoxyphenyl)acrylamide]	< 100	100 to 500	< 100	A (IC50 value for the indicated mutant below about 100 nM)
C=CC(=O)Nc1cc(Nc2ncc(C#N)c(-c3cn4c5c(cccc35)OCC4)n2)c(OC)cc1N1CC[C@@H](N(C)C)C1 [Example 5, (R)-N-(5-((5-cyano-4-(2,3-dihydro-[1,4]oxazino[2,3,4-hi]indol-6-yl)pyrimidin-2-yl)amino)-2-(3-(dimethylamino)pyrrolidin-1-yl)-4-methoxyphenyl)acrylamide]	< 100	100 to 500	< 100	A (IC50 value for the indicated mutant below about 100 nM)
[2H]C([2H])([2H])N(CCN(C)c1cc(OC)c(Nc2ncc(Cl)c(-c3cn4c5c(cccc35)OCC4)n2)cc1NC(=O)C=C)C([2H])([2H])[2H] [Example 7, N-(2-((2-(bis(methyl-d3)amino)ethyl)(methyl)amino)-5-((5-chloro-4-(2,3-dihydro-[1,4]oxazino[2,3,4-hi]indol-6-yl)pyrimidin-2-yl)amino)-4-methoxyphenyl)acrylamide]	< 100	< 100	< 100	A (IC50 value for the indicated mutant below about 100 nM)
C=CC(=O)Nc1cc(Nc2ncc(C#N)c(-c3cn4c5c(cccc35)CCC4)n2)c(OC)cc1N1CC[C@H](N(C)C)C1 [Example 16, (S)-N-(5-((5-cyano-4-(5,6-dihydro-4H-pyrrolo[3,2,1-ij]quinolin-1-yl)pyrimidin-2-yl)amino)-2-(3-(dimethylamino)pyrrolidin-1-yl)-4-methoxyphenyl)acrylamide]	< 100	100 to 500	< 100	A (IC50 value for the indicated mutant below about 100 nM)
C=CC(=O)Nc1cc(Nc2ncc(OC)c(-c3cn4c5c(cccc35)CCC4)n2)c(OC)cc1N(C)CCN(C)C [Example 19, N-(5-((4-(5,6-dihydro-4H-pyrrolo[3,2,1-ij]quinolin-1-yl)-5-methoxypyrimidin-2-yl)amino)-2-((2-(dimethylamino)ethyl)(methyl)amino)-4-methoxyphenyl)acrylamide]	< 100	100 to 500	< 100	A (IC50 value for the indicated mutant below about 100 nM)
